Toxic doses and inconclusive results are not listed. The calls were made as follows: active = survival T/C of 150% or more; inactive = T/C below 125% in these data.
Test system: P388 leukemia ip, CD2F1 mice, survival T/C
Test: NCI In Vivo Anticancer Drug Screen. Data for tumor model P388 Leukemia (intraperitoneal) in CD2F1 (CDF1) mice
Settings: endpoint: median survival time, higher = longer survival
Summary of the method: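 Mice carrying the transplanted tumor received test compound or vehicle. Survival was recorded in each group, and the value is the treated-group measurement divided by that of the vehicle-treated control group.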

Measured: T/C

Oc1ccc2[nH]cc(CCNCC3(O)OCC(O)C(O)C3O)c2c1 (centres undefined)
inactive: dose: 60.0 mg/kg/injection, schedule: Q01DX005 (ip), vehicle: saline 98 % of control | dose: 120.0 mg/kg/injection, schedule: Q01DX005 (ip), vehicle: saline 101 % of control | dose: 240.0 mg/kg/injection, schedule: Q01DX005 (ip), vehicle: saline 91 % of control

Nc1nc(N)c2cc(S(=O)(=O)c3ccc(Cl)cc3)ccc2n1
inactive: dose: 50.0 mg/kg/injection, schedule: Q01DX009 (ip), vehicle: saline with Tween-80 100 % of control | dose: 100.0 mg/kg/injection, schedule: Q01DX009 (ip), vehicle: saline with Tween-80 98 % of control | dose: 200.0 mg/kg/injection, schedule: Q01DX009 (ip), vehicle: saline with Tween-80 97 % of control

CN1C2(c3ccccc3)OC(=O)C1(c1ccccc1)C1C(=O)C3C4c5ccccc5C(c5ccccc54)C3C(=O)C12 (centres undefined)
inactive: dose: 50.0 mg/kg/injection, schedule: Q01DX009 (ip), vehicle: Klucel (hydroxypropylcellulose) (HPC) 94 % of control | dose: 100.0 mg/kg/injection, schedule: Q01DX009 (ip), vehicle: Klucel (hydroxypropylcellulose) (HPC) 100 % of control | dose: 200.0 mg/kg/injection, schedule: Q01DX009 (ip), vehicle: Klucel (hydroxypropylcellulose) (HPC) 94 % of control

Reference: PubChem BioAssay AID330 (DTP/NCI, 2004)
